Measurements taken from PMC9283466, “In silico identification of two peptides with antibacterial activity against multidrug-resistant Staphylococcus aureus” (NPJ Biofilms and Microbiomes, 2022).
Converted amounts (≈) assume the structure as drawn. Bridge positions count the residues as written; N and C are the ends. Peptide text beside a SMILES is read from it.

Tests used:
[1] = tested on: S. aureus MRSA USA300 cells; test: Transcriptomic analysis (RNA-Seq, DESeq2); assay type: cell-based, Staphylococcus aureus; settings: MIC concentration for 60 min; p <0.05, abs(log2FC)> 2
Procedure: The mechanism of action and effects of HG2 and HG4 against S. aureus MRSA USA300 was investigated using transcriptomics analysis[57],[58]. […] The increased sample volume and limited treatment time of 60 min served to maintain the quality and yield of RNA. Untreated cells served as control. Cells were washed and resuspended in PBS and then RNAprotect Bacteria Reagent (QIAGEN, Hilden, Germany) was added and pelleted. This was followed by incubation in Tris-EDTA buffer containing Proteinase K and Bacterial Lysis Mix (Mutanolysin and Lysozyme) at room temperature for 10 min addition. Thereafter, RNA extraction was performed using the Qiagen RNeasy Plus Mini Kit following the manufacturer’s protocol (Qiagen, Manchester, UK). RNA was quantified using a Qubit™ fluorometer with a broad range RNA kit (Invitrogen, USA), according to the manufacturer’s instructions. All experiments were carried out in triplicates. […]
Analysis of sequencing data was carried out using the Geneious Prime® (2021.1.1) software (Biomatters Ltd, New Zealand)[59]. Firstly, all raw paired-end fastq reads passing quality check by FastQC v0.11.9 were mapped to the reference genome (Staphylococcus aureus subsp. aureus USA300_TCH1516 downloaded from the NCBI website), using Geneious RNA-Seq mapper. […]

P. aeruginosa (CF) C3719 = test: microbe, parasite or virus in culture; assay type: cell-based, Pseudomonas aeruginosa; settings: CF) C3719
Procedure: (§1) To determine the antimicrobial activity of the new antimicrobial peptides, HG2 and HG4, their minimum inhibitory concentrations (MICs) were determined by broth microdilution method[51] in cation adjusted Mueller Hinton broth (MHB) following the International Organisation for Standardisation (ISO) 20776-1 standard for MIC testing using a final bacterial inoculum of 5 × 10^5 CFU/ml[52]. […] The peptides dissolved in sterile distilled water were added to bacteria culture and incubated overnight at appropriate conditions. The MICs of the peptides and comparator antibiotics were recorded after 18–24 h. The minimum bactericidal concentrations (MBCs) were also determined and were taken as the lowest concentration of the antimicrobial that prevented the growth of bacterial cells after the subculture of cells (from MIC treatment) onto antibiotic-free media.

[2] = tested on: P. aeruginosa (CF) AMT0060; test: microbe, parasite or virus in culture; assay type: cell-based, Pseudomonas aeruginosa; settings: CF) AMT0060
Procedure: as §1

P. aeruginosa PA01 = test: microbe, parasite or virus in culture; assay type: cell-based, Pseudomonas aeruginosa
Procedure: as §1

[3] = tested on: P. aeruginosa (CF) LES400; test: microbe, parasite or virus in culture; assay type: cell-based, Pseudomonas aeruginosa; settings: CF) LES400
Procedure: as §1

SMILES: CC[C@H](C)[C@H](NC(=O)[C@H](CC(C)C)NC(=O)[C@H](CC(C)C)NC(=O)[C@H](CC(C)C)NC(=O)[C@H](CCCCN)NC(=O)[C@H](CCCCN)NC(=O)[C@@H](N)CCSC)C(=O)N[C@@H](CC(C)C)C(=O)N[C@@H](Cc1ccccc1)C(=O)N[C@H]1CSSC[C@@H](C(=O)N[C@@H](CCCCN)C(=O)N[C@@H](CCCCN)C(=O)N[C@@H](C)C(=O)N2CCC[C@H]2C(N)=O)NC(=O)CNC(=O)[C@H](C)NC(=O)[C@H](CC(C)C)NC(=O)[C@H](C)NC(=O)[C@H](CC(C)C)NC(=O)[C@H](C)NC(=O)[C@H](CC(C)C)NC1=O [HG2] (H-MKKLLLILFCLALALAGCKKAP-NH2; disulfide 10-18; N-terminus assumed)
- number of differentially expressed genes (DEGs) [1]: 114
- MIC (P. aeruginosa (CF) C3719): 64 µg/mL (≈ 27.2 µM)
- MIC [2]: 256 µg/mL (≈ 109 µM)
- MIC (P. aeruginosa PA01): >512 µg/mL
- MIC [3]: 64 µg/mL (≈ 27.2 µM)

SMILES: CC[C@H](C)[C@H](NC(=O)[C@H](CC(C)C)NC(=O)[C@H](CC(C)C)NC(=O)[C@H](C)NC(=O)CNC(=O)CNC(=O)[C@@H](NC(=O)[C@@H](NC(=O)[C@H](CC(C)C)NC(=O)[C@H](C)NC(=O)[C@H](CC(C)C)NC(=O)CNC(=O)[C@H](CC(C)C)NC(=O)[C@@H](N)C(C)C)[C@@H](C)CC)C(C)C)C(=O)N[C@@H](CCCCN)C(=O)N[C@@H](CCCCN)C(=O)N[C@@H](CCCCN)C(=O)N[C@@H](CCC(N)=O)C(=O)N[C@@H](C)C(=O)N[C@@H](CCCCN)C(=O)N[C@@H](CO)C(N)=O [HG4] (H-VLGLALIVGGALLIKKKQAKS-NH2; N-terminus and C-terminus assumed)
- number of differentially expressed genes (DEGs) [1]: 123
- MIC (P. aeruginosa (CF) C3719): 128 µg/mL (≈ 60.4 µM)
- MIC [2]: 256 µg/mL (≈ 121 µM)
- MIC (P. aeruginosa PA01): >512 µg/mL
- MIC [3]: 128 µg/mL (≈ 60.4 µM)
